Target: Protein phosphatase 1 catalytic subunit (PP1)
Test: Inhibitory activity against recombinant Protein phosphatase 1

Compound	IC50 [µM]
COC1OC(=O)[C@H]2[C@@H]1[C@@H]1CC[C@H]2O1 (stereo partly drawn) [(1R,2S,6R,7S)-5-Methoxy-4,10-dioxa-tricyclo[5.2.1.0*2,6*]decan-3-one]	> 1000
CCOC(=O)C1C(C(=O)O)[C@@H]2CC[C@H]1O2 (stereo partly drawn) [(1R,4S)-7-Oxa-bicyclo[2.2.1]heptane-2,3-dicarboxylic acid monoethyl ester]	2.96
